Values quoted from earlier work as cited in patent publication US20040208936A1, “Novel compositions” (priority 2002, published 2004).
Converted amounts (≈) assume the structure as drawn.

System: S pneumoniae
Conditions: some 10% of pneumococci

CC1(C)S[C@@H]2[C@H](NC(=O)[C@H](N)c3ccc(O)cc3)C(=O)N2[C@H]1C(=O)O [Amoxicillin]
MIC: 2 µg/mL (≈ 5.47 µM)
